From BindingDB's records for PubMed 29656203 (n/a, 2018)

Assay: Inhibition of angiotensin II (unknown origin)

Row | SMILES | IC50
1 | CCCCc1nc2ccc(C3CC(c4ccc(C)cc4)=NO3)cc2c(=O)n1Cc1ccc(-c2ccccc2-c2nnnn2C(c2ccccc2)(c2ccccc2)c2ccccc2)cc1 (configuration not stated) | 22 nM
2 | CCCCc1nc2ccc(C3CC(C(=O)OCC)=NO3)cc2c(=O)n1Cc1ccc(-c2ccccc2-c2nnnn2C(c2ccccc2)(c2ccccc2)c2ccccc2)cc1 (configuration not stated) | 22 nM
